Earlier results as cited in patent US10264790B2, “Use of certain herbicide combinations based on iodosulfuron in teff plants” (BAYER CROPSCIENCE AKTIENGESELLSCHAFT, priority 2016, dated 2019).
Where two headings read alike, the source gives them in different places.

Tests used:
teff [1] = conditions: for injury to teff: applied postemergence; for levels of weed control, teff safety and teff yields: postemergence applications
teff (Eragrostis tef) = conditions: for injury on teff: in vivo; for yield reductions: field studies Kansas, teff
[2] = system: Phalaris paradoxa and Setaria pallidefusca; conditions: pot experiments; applied pre-emergence (diclofop-methyl only with a safener)
teff [3] = conditions: for selectivity in teff: with or without the safener
[4] = postemergence treatments, field studies Oregon 2009

Nc1c(Cl)c(F)nc(OCC(=O)O)c1Cl [fluroxypyr]
teff injury (in words) (teff [1]; in vivo): little or no teff injury

COc1cc(OC)nc(NC(=O)NS(=O)(=O)c2c(C(=O)O)c(Cl)nn2C)n1 [halosulfuron]
injury on teff (teff (Eragrostis tef)): less than 5%

COc1nc(C)nc(N(C)C(=O)NS(=O)(=O)c2ccccc2C(=O)O)n1 [tribenuron]
teff injury (in words) (teff [1]; [4]): little or no teff injury

CCC/C(=N\OCC)C1=C(O)CC(CC(C)SCC)CC1=O (centres unmarked) [sethoxydim]
yield reductions (teff (Eragrostis tef)): 50%

Cn1nc(-c2cc(OCC(=O)O)c(Cl)cc2F)c(Cl)c1OC(F)F [pyraflufen]
teff injury (in words) (teff [1]; [4]): little or no teff injury

COc1nc(C)nc(NC(=O)NS(=O)(=O)c2ccccc2CCC(F)(F)F)n1 [prosulfuron]
injury on teff (teff (Eragrostis tef)): less than 5%

CCc1cc(C)cc(CC)c1-c1c(OC(=O)C(C)(C)C)n2n(c1=O)CCOCC2 [pinoxaden]
injury to teff (teff [1]; field studies Oregon 2009): 70%

COc1cc(OC)nc(NC(=O)NS(=O)(=O)c2cc(C(=O)O)ccc2CNS(C)(=O)=O)n1 [mesosulfuron, 2-[(4,6-dimethoxypyrimidin-2-ylcarbamoyl)sulfamoyl]-α-methanesulfonamido-p-toluic acid]
injury to teff (teff [1]; field studies Oregon 2009): 10%

COc1nc(C)nc(=NC(=O)NS(=O)(=O)c2ccccc2C(=O)O)[nH]1 [metsulfuron]
levels of weed control, teff safety and teff yields (teff [1]; field studies Oregon 2009): highest levels
teff injury (in words) (teff [1]; [4]): little or no teff injury

COc1nn(C(=O)NS(=O)(=O)c2ccccc2OC(F)(F)F)c(=O)n1C [flucarbazone]
teff injury (in words) (teff [1]; [4]): little or no teff injury

CS(=O)(=O)c1ccc(C(=O)C2C(=O)CCCC2=O)c([N+](=O)[O-])c1 [mesotrione]
yield reductions (teff (Eragrostis tef)): 30%
injury to teff (teff [1]; field studies Oregon 2009): 63%
injury to the teff (teff [1]; applied preemergence, field studies Oregon 2009): 100%

COc1cc(OC)nc(NC(=O)NS(=O)(=O)c2ncccc2C(=O)N(C)C)n1 [nicosulfuron]
injury to teff (teff [1]; field studies Oregon 2009): 20%

COC(=O)C(C)Oc1ccc(Oc2ccc(Cl)cc2Cl)cc1 (centres unmarked) [Diclofop-methyl]
control of Phalaris paradoxa and Setaria pallidefusca [2]: controlled both weeds
safety / tolerance on teff (teff [3]; pot experiments, applied pre-emergence (diclofop-methyl only with a safener)): tolerated by teff

COc1nc(C)nc(NC(=O)NS(=O)(=O)c2ccccc2Cl)n1 [chlorsulfuron]
control of Phalaris paradoxa and Setaria pallidefusca [2]: controlled both weed species
safety / tolerance on teff (teff [3]; in vivo): safe on teff
teff injury (in words) (teff [1]; in vivo): little or no teff injury
levels of weed control, teff safety and teff yields (teff [1]; field studies Oregon 2009): highest levels

CCc1cccc(CC)c1N(COC)C(=O)CCl [alachlor]
selectivity in teff (teff [3]; pot experiments): failed to show selectivity

O=C(O)c1nc(Cl)ccc1Cl [clopyralid]
teff injury (in words) (teff [1]; [4]): little or no teff injury

COc1ccc(NC(=O)N(C)C)cc1Cl [metoxuron]
selectivity in teff (teff [3]; pot experiments): failed to show selectivity

CCC(CC)Nc1c([N+](=O)[O-])cc(C)c(C)c1[N+](=O)[O-] [pendimethalin]
selectivity in teff (teff [3]; pot experiments): failed to show selectivity

O=C(O)COc1ccc(Cl)cc1Cl [2,4-D, (2,4-dichlorophenoxy)acetic acid]
injury on teff (teff (Eragrostis tef)): less than 5%
